≈ marks a conversion by molar mass, not a printed value. Where two headings read alike, the source gives them in different places.
Legend:
[1] = test system: B. subtilis; assay: Antibacterial activity of crude compounds made by small scale synthesis; format: cell-based; conditions: crude reaction mixtures dissolved in DMSO, assayed directly
Experimental: 6-Anilinouracils were synthesized using small scale synthetic methods. One milligram quantities of 3-(3-methoxypropyl)-6-chlorouracil were heated with 42 substituted anilines in micro-test tubes at 130° C. for 20 minutes. The reaction mixtures were dissolved in DMSO and assayed directly for antibacterial activity.

[2] = molecular target: B. subtilis DNA pol III (Bacillus subtilis, UniProt P13267); assay: Inhibition of B. subtilis DNA pol III (Ki); format: biochemical
B. subtilis DNA pol III, sequence (P13267 whole entry): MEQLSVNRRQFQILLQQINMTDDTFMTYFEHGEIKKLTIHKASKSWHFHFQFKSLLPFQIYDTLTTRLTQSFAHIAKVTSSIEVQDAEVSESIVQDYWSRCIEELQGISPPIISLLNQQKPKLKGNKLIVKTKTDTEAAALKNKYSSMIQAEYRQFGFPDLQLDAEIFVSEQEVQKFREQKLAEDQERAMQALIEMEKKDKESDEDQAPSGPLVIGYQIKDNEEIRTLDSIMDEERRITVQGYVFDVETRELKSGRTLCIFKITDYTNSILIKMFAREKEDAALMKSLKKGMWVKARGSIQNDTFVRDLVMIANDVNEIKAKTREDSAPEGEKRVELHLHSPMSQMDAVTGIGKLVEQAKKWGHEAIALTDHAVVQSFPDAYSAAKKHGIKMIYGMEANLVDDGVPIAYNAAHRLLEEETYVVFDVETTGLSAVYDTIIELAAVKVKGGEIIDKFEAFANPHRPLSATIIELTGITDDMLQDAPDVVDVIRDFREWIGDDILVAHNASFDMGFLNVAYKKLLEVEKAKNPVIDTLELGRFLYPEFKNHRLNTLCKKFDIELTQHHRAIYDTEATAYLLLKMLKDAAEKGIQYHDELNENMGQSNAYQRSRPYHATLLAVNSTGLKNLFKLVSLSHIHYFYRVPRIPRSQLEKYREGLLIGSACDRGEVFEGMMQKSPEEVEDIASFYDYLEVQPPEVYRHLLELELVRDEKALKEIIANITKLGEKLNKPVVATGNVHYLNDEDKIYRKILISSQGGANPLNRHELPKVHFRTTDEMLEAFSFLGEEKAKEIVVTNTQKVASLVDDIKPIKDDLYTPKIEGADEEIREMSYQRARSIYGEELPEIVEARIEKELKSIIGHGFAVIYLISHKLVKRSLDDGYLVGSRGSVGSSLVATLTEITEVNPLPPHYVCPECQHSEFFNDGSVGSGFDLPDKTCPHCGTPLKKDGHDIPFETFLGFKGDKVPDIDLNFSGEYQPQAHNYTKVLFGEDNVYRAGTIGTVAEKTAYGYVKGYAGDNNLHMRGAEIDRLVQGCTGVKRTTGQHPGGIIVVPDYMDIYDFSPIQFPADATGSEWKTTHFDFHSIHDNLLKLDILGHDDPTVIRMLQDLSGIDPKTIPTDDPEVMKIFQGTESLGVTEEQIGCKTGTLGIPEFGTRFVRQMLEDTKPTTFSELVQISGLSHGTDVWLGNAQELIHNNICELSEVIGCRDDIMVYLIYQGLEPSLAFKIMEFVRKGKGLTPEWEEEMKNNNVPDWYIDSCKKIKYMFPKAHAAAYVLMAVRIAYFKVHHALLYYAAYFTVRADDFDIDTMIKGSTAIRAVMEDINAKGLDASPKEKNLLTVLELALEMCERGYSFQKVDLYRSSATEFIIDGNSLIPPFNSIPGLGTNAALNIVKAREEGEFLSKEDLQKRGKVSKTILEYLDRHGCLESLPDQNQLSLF
Experimental: (§1) To further investigate the antibacterial and/or DNA pol III inhibitory activity of various drug compounds, various ester-containing moieties N-linked to the EMAU core were produced as described in Example 1. These prodrugs were assayed for inhibition of B. subtilis DNA pol III and antibiotic activity against a number of bacteria.
The competitive inhibitor constants (Ki) of selected EMAU compounds were determined with three different pol Ills: the pol III enzyme from Bacillus subtilis (BS pol III), and the pol III enzymes of the clinically relevant pathogens, Enterococcus fecalis (EF pol III) and Staphylococcus aureus (SA pol 111).

[3] = test system: B. subtilis; assay: MIC against B. subtilis; format: cell-based; conditions: for MIC: Bacillus subtilis, Table 6, read-out: MIC B. subtilis; for MIC B. subtilis: Table 2
Experimental: as §1
(§2) The minimal inhibitory concentrations (MICs) of the four N3-substituted agents and EMAU were determined for B. subtilis (BS), methicillin-sensitive and resistant S. aureus (SA & MRSA), vancomycin-sensitive and resistant E. fecalis (EF& VREF), vancomycin-resistant E. fecium (VREF*), and E. coli (EC) as a Gram-negative control.

[4] = test system: S. aureus; assay: MIC against S. aureus (methicillin-sensitive); format: cell-based; conditions: for MIC: Staphylococcus aureus, read-out: MIC S. aureas; for MIC S. aureus: Table 2
Experimental: as §1, §2

[5] = test system: E. fecalis; assay: MIC against E. fecalis; format: cell-based; conditions: for MIC: Table 6, read-out: MIC E. fecalis; for MIC E. fecalis: Table 2
Experimental: as §1, §2

[6] = test system: MRSA; assay: MIC against methicillin-resistant S. aureus strain MRSA / MRSA1; format: cell-based; conditions: Table 2
Experimental: as §1, §2

[7] = test system: MRSA2; assay: MIC against methicillin-resistant S. aureus strain MRSA2; format: cell-based; conditions: Table 2
Experimental: as §1, §2

[8] = test system: E. fecium; assay: MIC against E. fecium; format: cell-based; conditions: Table 2
Experimental: as §1

[9] = test system: vancomycin-resistant E. fecium; assay: MIC against vancomycin-resistant E. fecium (VRE, VREF*); format: cell-based; conditions: Table 2, vancomycin-resistant E. fecium
Experimental: as §1, §2

[10] = test system: E. coli; assay: MIC against E. coli (Gram-negative control); format: cell-based; conditions: Table 2
Experimental: as §1, §2

[11] = Table 6, read-out: Ki, inhibition constant vs. B. subtilis DNA pol III
[12] = Table 2, prodrugs having the EMAU core, read-out: Ki B. subtilis DNA Pol III

COCCCn1c(=O)cc(Nc2ccc(Br)c(Br)c2)[nH]c1=O [3,4-diBr]
MIC B. subtilis [1]: 3.13 µg/mL (≈ 7.23 µM)

CCc1cc(Nc2cc(=O)n(CCCCI)c(=O)[nH]2)ccc1C [IB-EMAU, 3-(4-iodobutyl)-6-(3-ethyl-4-methylanilino)uracil]
Ki [2, 11]: 360 nM | MIC [3]: < 3.1 µg/mL | MIC [4]: 12 µg/mL (≈ 28.1 µM) | MIC [5]: 6 µg/mL (≈ 14 µM)

COCCCn1c(=O)cc(Nc2cccc(F)c2)[nH]c1=O [Compound 3-F]
MIC B. subtilis [1]: >100 µg/mL

COCCCn1c(=O)cc(Nc2ccc(C)c(I)c2)[nH]c1=O [Compound 3-1-4-Me]
MIC B. subtilis [1]: 1.57 µg/mL (≈ 3.78 µM)

COCCCn1c(=O)cc(Nc2cccc(Br)c2)[nH]c1=O [Compound 3-Br]
MIC B. subtilis [1]: >100 µg/mL

COCCCn1c(=O)cc(Nc2ccccc2)[nH]c1=O [—]
MIC B. subtilis [1]: >100 µg/mL

COCCCn1c(=O)cc(Nc2cccc(Cl)c2)[nH]c1=O [Compound 3-Cl]
MIC B. subtilis [1]: >100 µg/mL

COCCCn1c(=O)cc(Nc2cc(C)cc(C)c2)[nH]c1=O [3,5-diMe]
MIC B. subtilis [1]: 50 µg/mL (≈ 165 µM)

CCc1cc(Nc2cc(=O)n(CCCCOC(=O)C(CO)NC(=O)OC(C)(C)C)c(=O)[nH]2)ccc1C (centres unmarked) [(CH2)4-OCOCH(CH2OH)NH-Boc]
Ki [2, 12]: 1500 nM | MIC B. subtilis [3]: 5 μ/ml | MIC S. aureus [4]: 20 μ/ml | MIC MRSA [6]: 20 μ/ml | MIC MRSA2 [7]: 20 μ/ml | MIC E. fecalis [5]: 5 μ/ml | MIC E. fecium [8]: 10 μ/ml | MIC VRE [9]: 5 μ/ml | MIC E. coli [10]: >20 μ/ml

COCCCn1c(=O)cc(Nc2cc(OC(F)(F)F)cc(OC(F)(F)F)c2)[nH]c1=O [3,5-diOCF3]
MIC B. subtilis [1]: >100 µg/mL

COCCCn1c(=O)cc(Nc2ccc(F)cc2)[nH]c1=O [Compound 4-F]
MIC B. subtilis [1]: >100 µg/mL

COCCCn1c(=O)cc(Nc2cccc(C(C)O)c2)[nH]c1=O (centres unmarked) [3-CH(OH)CH3]
MIC B. subtilis [1]: >100 µg/mL

COCCCn1c(=O)cc(Nc2cccc(CO)c2)[nH]c1=O [Compound 3-CH2OH]
MIC B. subtilis [1]: >100 µg/mL

CCc1cc(Nc2cc(=O)n(CCCCOC(=O)C3CCCN3C(=O)OC(C)(C)C)c(=O)[nH]2)ccc1C (centres unmarked) [(CH2)4-OCOCH(CH2)3NH-Boc]
Ki [2, 12]: 3200 nM | MIC B. subtilis [3]: <1.25 μ/ml | MIC S. aureus [4]: 10 μ/ml | MIC MRSA [6]: 20 μ/ml | MIC MRSA2 [7]: 10 μ/ml | MIC E. fecalis [5]: 10 μ/ml | MIC E. fecium [8]: 10 μ/ml | MIC VRE [9]: 10 μ/ml | MIC E. coli [10]: >20 μ/ml

CCc1cc(Nc2cc(=O)n(CCCCOC(=O)C(C)N)c(=O)[nH]2)ccc1C (centres unmarked) [(CH2)4-OCOCHCH3NH3^+Cl^−]
Ki [2, 12]: 180 nM | MIC B. subtilis [3]: 2.5 μ/ml | MIC S. aureus [4]: 20 μ/ml | MIC MRSA [6]: 20 μ/ml | MIC MRSA2 [7]: 20 μ/ml | MIC E. fecalis [5]: 10 μ/ml | MIC E. fecium [8]: 10 μ/ml | MIC VRE [9]: 10 μ/ml | MIC E. coli [10]: >20 μ/ml

CCc1cc(Nc2cc(=O)n(CCCCOC)c(=O)[nH]2)ccc1C [MB-EMAU]
Ki [2, 11]: 430 nM | MIC [3]: < 3.1 µg/mL | MIC [4]: 6 µg/mL (≈ 18.1 µM) | MIC [5]: 6 µg/mL (≈ 18.1 µM)

COCCCn1c(=O)cc(Nc2ccc(C)c(CO)c2)[nH]c1=O [Compound 3-CH2OH-4-Me]
MIC B. subtilis [1]: >100 µg/mL

COCCCn1c(=O)cc(Nc2ccc(F)c(F)c2)[nH]c1=O [3,4-diF]
MIC B. subtilis [1]: >100 µg/mL

COCCCn1c(=O)cc(Nc2cc(Cl)cc(Cl)c2)[nH]c1=O [3,5-diCl]
MIC B. subtilis [1]: >100 µg/mL

COCCCn1c(=O)cc(Nc2ccc(Br)c(C(F)(F)F)c2)[nH]c1=O [Compound 3-CF3-4-Br]
MIC B. subtilis [1]: >100 µg/mL

COCCCn1c(=O)cc(Nc2cccc(C)c2)[nH]c1=O [Compound 3-Me]
MIC B. subtilis [1]: 100 µg/mL (≈ 346 µM)

COCCCn1c(=O)cc(Nc2ccc(C(C)C)cc2)[nH]c1=O [Compound 4-iPR]
MIC B. subtilis [1]: >100 µg/mL

COCCCn1c(=O)cc(Nc2ccc(O)cc2)[nH]c1=O [Compound 4-OH]
MIC B. subtilis [1]: >100 µg/mL

COCCCn1c(=O)cc(Nc2ccc(I)cc2)[nH]c1=O [Compound 4-I]
MIC B. subtilis [1]: 100 µg/mL (≈ 249 µM)

COCCCn1c(=O)cc(Nc2ccc(Cl)c(C(F)(F)F)c2)[nH]c1=O [Compound 3-CF3-4-Cl]
MIC B. subtilis [1]: >100 µg/mL

CCc1ccc(Nc2cc(=O)n(CCCOC)c(=O)[nH]2)cc1 [Compound 4-Et]
MIC B. subtilis [1]: 50 µg/mL (≈ 165 µM)

COCCCn1c(=O)cc(Nc2ccc(Cl)cc2)[nH]c1=O [Compound 4-Cl]
MIC B. subtilis [1]: 100 µg/mL (≈ 323 µM)

COCCCn1c(=O)cc(Nc2ccc(F)c(Cl)c2)[nH]c1=O [Compound 3-Cl-4-F]
MIC B. subtilis [1]: 50 µg/mL (≈ 153 µM)

Cc1ccc(Nc2cc(=O)n(CCCCI)c(=O)[nH]2)cc1I [IB-IMAU]
Ki [2, 11]: 660 nM | MIC [3]: < 3.1 µg/mL | MIC [4]: 6 µg/mL (≈ 11.4 µM) | MIC [5]: 6 µg/mL (≈ 11.4 µM)

COCCCn1c(=O)cc(Nc2cccc(C#N)c2)[nH]c1=O [Compound 3-CN]
MIC B. subtilis [1]: >100 µg/mL

COCCCn1c(=O)cc(Nc2ccc(C)c(C)c2)[nH]c1=O [3,4-diMe]
MIC B. subtilis [1]: 6.26 µg/mL (≈ 20.6 µM)

COCCCn1c(=O)cc(Nc2ccc(C)cc2)[nH]c1=O [Compound 4-Me]
MIC B. subtilis [1]: 50 µg/mL (≈ 173 µM)

CCCc1ccc(Nc2cc(=O)n(CCCOC)c(=O)[nH]2)cc1 [Compound 4-Pr]
MIC B. subtilis [1]: >100 µg/mL

COCCCn1c(=O)cc(Nc2ccc(CC(C)C)cc2)[nH]c1=O [Compound 4-iBU]
MIC B. subtilis [1]: >100 µg/mL

CCc1cc(Nc2cc(=O)n(CCCCOC(=O)C(N)CO)c(=O)[nH]2)ccc1C.Cl (centres unmarked) [(CH2)4-OCOCH(CH2OH)NH3^+Cl^−]
Ki [2, 12]: 10 nM | MIC B. subtilis [3]: 10 μ/ml | MIC S. aureus [4]: >20 μ/ml | MIC MRSA [6]: >20 μ/ml | MIC MRSA2 [7]: >20 μ/ml | MIC E. fecalis [5]: 20 μ/ml | MIC E. fecium [8]: 20 μ/ml | MIC VRE [9]: 20 μ/ml | MIC E. coli [10]: >20 μ/ml

COCCCCn1c(=O)cc(Nc2ccc(C)c(I)c2)[nH]c1=O [ME-IMAU]
Ki [2, 11]: 540 nM | MIC [3]: < 3.1 µg/mL | MIC [4]: 6 µg/mL (≈ 14 µM) | MIC [5]: 3 µg/mL (≈ 6.99 µM)

COCCCn1c(=O)cc(Nc2cccc(I)c2)[nH]c1=O [Compound 3-I]
MIC B. subtilis [1]: 25 µg/mL (≈ 62.3 µM)

COCCCn1c(=O)cc(Nc2ccc(C)c(Cl)c2)[nH]c1=O [Compound 3-Cl-4-Me]
MIC B. subtilis [1]: 3.13 µg/mL (≈ 9.67 µM)

COCCCn1c(=O)cc(Nc2ccc(OC)c(OC)c2)[nH]c1=O [3,4-diOMe]
MIC B. subtilis [1]: >100 µg/mL

COCCCn1c(=O)cc(Nc2cccc([N+](=O)[O-])c2)[nH]c1=O [Compound 3-NO2]
MIC B. subtilis [1]: >100 µg/mL

COCCCn1c(=O)cc(Nc2ccc(C#N)cc2)[nH]c1=O [Compound 4-CN]
MIC B. subtilis [1]: >100 µg/mL

COCCCn1c(=O)cc(Nc2ccc(Cl)c(Cl)c2)[nH]c1=O [3,4-diCl]
MIC B. subtilis [1]: 6.25 µg/mL (≈ 18.2 µM)

COCCCn1c(=O)cc(Nc2ccc(OC)c(Cl)c2)[nH]c1=O [Compound 3-Cl-4-OMe]
MIC B. subtilis [1]: 50 µg/mL (≈ 147 µM)

CCc1cc(Nc2cc(=O)n(CCCCOC(=O)C(N)Cc3ccccc3)c(=O)[nH]2)ccc1C (centres unmarked) [(CH2)4-OCOCH(CH2Ph)NH3^+Cl^−]
Ki [2, 12]: 6200 nM | MIC B. subtilis [3]: >20 μ/ml | MIC S. aureus [4]: >20 μ/ml | MIC MRSA [6]: >20 μ/ml | MIC MRSA2 [7]: >20 μ/ml | MIC E. fecalis [5]: >20 μ/ml | MIC E. fecium [8]: >20 μ/ml | MIC VRE [9]: >20 μ/ml | MIC E. coli [10]: >20 μ/ml

COCCCn1c(=O)cc(Nc2cccc(OC)c2)[nH]c1=O [Compound 3-OMe]
MIC B. subtilis [1]: >100 µg/mL

COCCCn1c(=O)cc(Nc2cc(F)c(F)c(F)c2)[nH]c1=O [3,4,5-triF]
MIC B. subtilis [1]: >100 µg/mL
